Results taken from patent US9487551B2, “Small molecule compounds that control mammal-pathogenic nematodes” (California Institute of Technology, priority 2011, dated 2016).
“Also recorded” adds a separate entry of the source.

Experiments:
C. elegans [1] = assay: Ascaroside function (Table 12); type: in vivo, Caenorhabditis elegans; design: key to Attract Females/Herm. / Promote Dauer Formation / Attract Males: A very strong result of affecting nematode behavior is designated in the table as “strong.”; conditions: listed = has this function
Experimental: (§1) Various ascarosides and ascaroside blends were administered to various nematodes described below (Table 12). […] A very strong result of affecting nematode behavior is designated in the table as “strong.”

Panagrellus redivivus = assay: Ascaroside function (Table 12); type: in vivo; conditions: listed = has this function
Experimental: as §1

S. glaseri = assay: Ascaroside function (Table 12); type: in vivo; conditions: listed = has this function
Experimental: as §1

males = assay: Bioassay of HPLC-purified peak; type: in vivo; conditions: retention time 9.7 minutes
Experimental: A Thermo Finnigan LCQ Deca XP Max was used with electrospray ionization in positive ion mode in the 50-1000 AMU range. The Thermo Separation spectra HPLC system consisted of a P4000 quaternary pump, an AS 3000 auto sampler, and a UV 6000 diode array detector. The solvents were water with (a) 0.1% formic acid and (b) 90% acetonitrile-10% water with 10 mM ammonium formate. The column temperature was maintained at 60° C. and a solvent flow of 1.0 ml/min. The reversed phase column (PLRP-S Polymeric reversed phase column, 250×4.6 mmid, Varian Inc.) was eluted with a solvent composition starting with 90:10 (a,b) for 2 minutes, followed by a gradient to 5:95 in 20 minutes and an additional 5 minutes at 5:95. Ultraviolet absorption was monitored at 190 and 400 nm. Solvent flow between the ultraviolet detector and mass spectroscopy electrospray interface split 9:1 with a low-volume micro needle P450 splitter valve (Upchurch Scientific, Oak Harbor, Wash.), making it possible to obtain spectra of eluted compounds and simultaneously collect 90% of the injected material for bioassay. […] This was confirmed to be ascr#1 using NMR analysis.

[2] = system: Several of the tested nematode species; assay: Retention assay; type: in vivo; conditions: 1 nM, 1 μM and 1 mM tested
Experimental: OP50 E. coli was grown on a standard 5 cm agar plate (made with standard Nematode Growth Medium). The bacterial lawn was 16 mm in diameter and was grown overnight at 20° C. before being used in trials. Two 4 mm spots (0.6 μL) were placed on opposite sides of the bacterial lawn (using a transparent template to guide spot placement), and several minutes elapsed for the liquid to settle in before placing nematodes down on the assay. Recording began immediately upon worm placement. 0.6 μL of the control was placed on one side of the lawn, and 0.6 μL of the experimental cue was placed on the other side of the lawn, changing the location of the cue throughout trials between left/right and top/bottom to avoid bias.
Nematodes were isolated by gender at the L4 stage the day before being used in trials as developed adults. Worms were evenly divided and placed at two points equidistant from the foci of the scoring region. Trials were recorded for 20 minutes, and frames were collected for analysis at 1 frame per second. Results were averaged from at least three different trials. For every nematode species in this study, a different total number of worms (using water in both scoring regions) was tested to determine the minimum number of worms necessary for consistent unbiased results over a 20 minute trial. The total number of worms used in the multiple species assays depended on that species' optimal parameters. 10 worms were used for P. redivivus males and females, 20 worms were used for C. elegans males and O. dolichuridae males, and 14 worms were used for S. glaseri males. The Automated Software was used to compare worm occupancy in each scoring region over time, and the Chemotaxis Index (Bargmann et al., Cell 74:515-27 (1993), which is hereby incorporated by reference in its entirety) was adapted to score preference or avoidance to each ascaroside.
A video camera attached to the microscope produced a digital video stream, which was then analyzed. The ratio of the time the average worm spent in each region of interest was calculated for every trial. For ease of implementation, all worms in a single experiment were assumed to be roughly the same size. Thus worm pixels were counted instead of whole worms, allowing fractions of a worm in the region of interest to be taken into account. It also eliminated the need for a shape-based worm identification algorithm, and allowed each frame to be analyzed independently. A band-pass filter was applied to each frame to eliminate the effect of uneven lighting and also accentuate the worms against the background. The worm was then identified after thresholding the filtered image. Throughout each experiment, the locations and sizes of the regions of interest were known. Through the filtering described above, it is known which pixels are occupied by worms and which ones are not. Thus, the ratio of worm-pixels to all pixels inside the region of interest can be calculated to produce the worm-occupancy ratio. This calculation was done for every frame, giving a plot output of worm-occupancy ratio vs. time for each region.

C. elegans [3] = assay: Quadrant chemotaxis assay; type: in vivo; conditions: for chemotaxis of hermaphrodites from all tested strains: 1 pM icas#3, except npr-1(ad609) for the blend
Experimental: Chemotaxis to both non-indole and indole ascarosides was assessed on 10 cm four-quadrant petri plates (Wicks et al., Dev. Biol. 221:295-307 (2000), which is hereby incorporated by reference in its entirety). Each quadrant was separated from adjacent ones by plastic spacers (FIG. 1B). Pairs of opposite quadrants were filled with nematode growth medium (NGM) agar containing either indole ascarosides or non-indole ascarosides at different concentrations. Animals were washed gently in a S-basal buffer, placed in the center of a four-quadrant plate with ascarosides in alternating quadrants, and scored after 15 minutes and 30 minutes. A chemotaxis index was calculated as: (the number of animals on ascaroside quadrants minus the number of animals on buffer quadrants)/(total number of animals).
Chemotaxis to hbas#3 was assessed on 10 cm four-quadrant petri plates (Wicks et al., Dev. Biol. 221:295-307 (2000), which is hereby incorporated by reference in its entirety). Each quadrant was separated from adjacent ones by plastic spacers. Pairs of opposite quadrants were filled with nematode growth medium (NGM) agar containing different concentrations of hbas#3. Animals were washed gently in an S-basal buffer and placed in the center of a four-quadrant plate with ascarosides in alternating quadrants, and scored after 15 minutes and 30 minutes. A chemotaxis index was calculated as: (the number of animals on ascaroside quadrants minus the number of animals on buffer quadrants)/(total number of animals).

C. elegans [4] = assay: Aggregation assay; type: in vivo
Experimental: Aggregation behavior of worms was measured using assays reported in de Bono & Bargmann, Cell 94:679-89 (1998), which is hereby incorporated by reference in its entirety. Aggregation assays were conducted on standard NGM plates. Plates containing indole ascarosides were made by adding the indole ascaroside stock solution to the NGM media before they were poured onto the plates. These plates were dried at room temperature for 2 to 3 days. Control plates were treated similarly, except that ethanol solutions instead of icas solutions were added to the plates, corresponding to the amount of ethanol introduced via the icas solutions. Final ethanol concentrations of the plates were below 0.1% for all conditions. After drying, both control plates and plates containing indole ascarosides were seeded with 150 μl of an overnight culture of E. coli OP50 using a micropipette, and were allowed to dry for 2 days at room temperature. For “low worm density” experiments, 20 worms were placed onto the lawn and left at 20° C. for 3 hours. For “high worm density” experiments, approximately 120 worms were placed onto the bacterial lawn and left at 20° C. for 3 hours. Aggregation behavior was quantified as the number of animals that were in touch with two or more animals at greater than 50% of their body length.

AIA interneurons = assay: Calcium imaging (G-CaMP); type: in vivo, C. elegans; conditions: 1 μM icas#3
Excerpt: Transgenic lines that express the genetically encoded Ca^2+ sensor in ASK (kyEx2866) and AIA (kyEx2916) (Macosko et al., Nature 458:1171-75 (2009), which is hereby incorporated by reference in its entirety) were used for calcium imaging. Young adults or adult worms were inserted into an “Olfactory chip” microfluidic device (Chronis et al., Nat. Methods 4:727-31 (2007), which is hereby incorporated by reference in its entirety). Dilutions of icas#3 were done with S-basal buffer (with no cholesterol). As stock solutions of icas#3 contained small amounts of ethanol, equivalent amounts of ethanol were added to the S-basal control flow.
Imaging was conducted using an inverted Zeiss microscope equipped with an Andor camera. Exposure time for image acquisition was 300 milliseconds. Before imaging the ASK neuron, the worm was exposed to blue light for 3 minutes as ASK responds to the blue light itself. […] Movies were analyzed using custom-made Matlab scripts. The first peak of fluorescence immediately after exposure to buffer or icas#3 was chosen for calculating the average change in fluorescence upon exposure to either buffer or icas#3. The value for this maximum was then subtracted from the mean fluorescence during the 5 seconds before the delivery of icas#3/buffer (corresponding to the region between 5 to 10 seconds in FIG. 2D).

C. elegans [5] = assay: Spot attraction assay; type: in vivo
Experimental: The spot attraction assays were conducted according to a previously reported method (Pungaliya et al., PNAS 106:7708-13 (2009); Srinivasan et al., Nature 454:1115-18 (2008), which are hereby incorporated by reference in their entirety). For both C. elegans hermaphrodites and males, 50-60 worms were harvested daily at the fourth larval stage (L4) and stored segregatedly by sex at 20° C. overnight, to be used as young adults the following day. For the competition experiments, two conditions were used: 120 nM ascr#3 and 10 nM icas#3 (Condition 1), or 12 μM ascr#3 and 1 μM icas#3 (Condition 2) in water containing 10% ethanol. Aliquots were stored at −20° C. in 20 μL tubes. 10% ethanol in water was used as control.
Attraction assays with hbas#3 were conducted as previously reported (Srinivasan et al., Nature 454:1115-18 (2008); Pungaliya et al., Proc. Natl. Acad. Sci. U.S.A. 106:7708-13 (2009), which are hereby incorporated by reference in their entirety). For the attraction assays, 50-60 hermaphrodite worms were harvested daily at the early fourth larval stage (L4) and stored at 20° C. overnight to be used as young adults the following day. Hbas#3 was dissolved in water containing 10% ethanol. Aliquots were stored at −20° C. in 20 μL tubes. 10% ethanol in water was used as control.

C. elegans [6] = assay: Measurement of locomotory parameters (automated worm-tracking); type: in vivo
Experimental: Reversal frequency and velocity were measured using an automated worm-tracking system (Pungaliya et al., PNAS 106:7708-13 (2009); Srinivasan et al., Nature 454:1115-18 (2008), which are hereby incorporated by reference in their entirety).

ASI sensory neurons = conditions: in vivo; cited from earlier work

## C[C@H](CCCCC(=O)O)O[C@@H]1O[C@@H](C)[C@H](O)C[C@H]1O [ascr#1]
C. elegans [1]
  Attract Males: ascr#l
  Promote Dauer Formation: ascr#1
Panagrellus redivivus
  Attract Males: ascr#1
S. glaseri
  Attract Males: ascr#1
males
  activity to males in the bioassay: active to males
[2]
  preference for ascaroside-conditioned areas: preferred areas conditioned

## C[C@H](CCCC/C=C/C(=O)O)O[C@@H]1O[C@@H](C)[C@H](OC(=O)c2c[nH]c3ccccc23)C[C@H]1O [icas#3]
C. elegans [1]
  Attract Females/Herm.: icas#3 ([strong])
  Attract Males: icas#3 ([strong])
C. elegans [3]; after 15 minutes, 10 nM of each ascr#2,3,5
  chemotaxis of hermaphrodites from all tested strains: attracted
C. elegans [3]; after 30 minutes, 10 nM ascr#2,3,5
  chemotaxis of hermaphrodites from all tested strains: attracted
C. elegans [3]; daf-22 mutant
  response of daf-22 hermaphrodites: as strongly as N2 worms
C. elegans [3]; in the presence and absence of food
  concentration as low as which resulted in strong attraction of hermaphrodites: 1 pM
C. elegans [3]; npr-1(ad609) mutant
  chemotaxis of npr-1(ad609) hermaphrodites: strongly attracted
C. elegans [3]; strains RC301 and CB4856
  chemotaxis of social wild-type hermaphrodites: strongly attracted
C. elegans [4]; 1 nM of icas#3
  aggregation of CB4856: not significantly different from the control
C. elegans [4]; any of the tested concentrations
  aggregation of hermaphrodites lacking the ASK neurons: did not aggregate
C. elegans [4]; compared with N2
  aggregation of daf-22 hermaphrodites: less aggregation than N2 worms at 1 pM icas#3 but not at 10 pM icas#3
C. elegans [4]; constant background concentration
  aggregation of solitary and social hermaphrodites: strongly increased the propensity
C. elegans [4]; entire tested concentration range, no drop off
  aggregation of npr-1(ad609) hermaphrodites: increased aggregation
C. elegans [4]; icas#3 plates
  aggregation of him-5 males: significantly increased
C. elegans [4]; in vivo
  concentration window for hermaphrodite attraction and aggregation: femtomolar to low picomolar
C. elegans [4]; low worm density, solitary and social hermaphrodites
  concentration as low as which gave a very strong increase in aggregation: 10 fM
AIA interneurons
  G-CaMP fluorescence in the AIA neurons: significantly increased G-CaMP fluorescence
C. elegans [5]; 1 pmol (high concentrations), N2 hermaphrodites and him-5 males
  attraction in spot attraction assay: attractive to both C. elegans sexes; also recorded: attracted both males and hermaphrodites
C. elegans [5]; ASI-ablated hermaphrodites
  attraction after ablation of ASI neurons: no significant effect
C. elegans [5]; ASK-ablated hermaphrodites
  attraction after ablation of ASK sensory neurons: near complete loss of attraction
C. elegans [5]; daf-22 mutant
  attraction of daf-22 hermaphrodites: attracted; also recorded: as strongly as N2 worms
C. elegans [5]; hyperactive MEC-4 in AIA interneuron
  attraction of AIA-deficient worms: did not show any attraction
C. elegans [5]; low concentrations, N2 hermaphrodites
  attraction of hermaphrodites: strongly attractive to hermaphrodites
C. elegans [5]; low concentrations, males
  attraction of males: no longer attracted
C. elegans [5]; npr-1(ad609) mutant
  attraction of npr-1(ad609) hermaphrodites: strongly attracted
C. elegans [5]; strains RC301 and CB4856
  attraction of social wild-type hermaphrodites: strongly attracted
C. elegans [5]; wild-type and ncs-1::gfp worms, RMG ablated
  response after ablation of RMG interneuron: did not affect icas#3 response
C. elegans [6]; 1-10 pM icas#3
  worm velocity: not significantly reduced
C. elegans [6]; aggregation-inducing concentrations, N2 hermaphrodites
  mean stopped duration: strongly increase
C. elegans [6]; icas#3 plates
  reversal frequency and velocity of ASK-ablated hermaphrodites: neither increased reversal frequency nor decreased velocity

## C[C@@H]1O[C@@H](OCCC(=O)O)[C@H](O)C[C@H]1O [ascr#5]
ASI sensory neurons
  calcium transients in the ASI sensory neurons: does not elicit calcium transients
C. elegans [1]
  Promote Dauer Formation: ascr#5 ([strong])
  Repel Females/Herm.: ascr#5
